Measured values: patent publication US11358931B2, “Selective androgen receptor modulators (SARMs) and uses thereof” (priority 2007, dated 2022)

Columns and labels:
[1] = 14-day oral toxicity study in cynomolgus monkeys; format: in vivo, cynomolgus monkey; conditions: cynomolgus monkey, in vivo, oral, cynomolgus monkeys, nasal gavage once daily 14 days
Description: (§1) A study was performed to determine any potential toxicity and the toxicokinetic profile of Compound 102 when administered orally (via nasal gavage) to cynomolgus monkeys for at least 14 days. The cynomolgus monkey was chosen for this study as it is a non-rodent species that is commonly used for non-clinical toxicity evaluations. Use of the monkey model maximized the likelihood of identifying toxicological responses that may occur in humans. Ten experimentally naïve cynomolgus monkeys (5 male and 5 female) from about 2.5 to 3 years of age and weighing between about 2.3 to about 2.8 kg at Day −1 of the study were assigned to dose groups as shown in Table 6 below.
(§2) All animals were dosed via nasal gavage once daily for 14 consecutive days. The first day of dosing was designated Day 1 for all animals. The animals were evaluated for clinical signs (evaluation of mortality and morbidity, twice daily), cage side observations and food consumption (once daily), body weight (Days 1, 8 and 14), physical examination (Day −5 and post dosing following the 13/24 hour toxicokinetic collection on Day 14), ophthalmic examination (prestudy and owing the Day 13/24 hour toxicokinetic collection on Day 14), and clinical pathology parameters (serum chemistry, hematology and coagulation on Days −3 and 14), urine samples were collected during necropsy (Day 15) for urinalysis. Blood samples were collected for toxicokinetic analysis at 1, 2, 4, 8, 12 and 24 hours post dose on Days 1 and 13.
(§3) All ten animals were euthanized one day after the last dose. At termination, a full necropsy was conducted on all animals, and tissues were collected, preserved, processed and examined microscopically by an American College of Veterinary Pathologists (ACVP) certified pathologist.
(§4) Vehicle was composed of PEG 400/Tween® 80/PVP-K30 (90/5/5, w/w/w). Appropriate amounts of Compound 102 were added to vehicle to prepare the suspension of test compound administered to the animals
(§5) Blood samples for evaluation of serum chemistry, hematology and coagulation parameters were collected from all animals on Days −3 and 14. Urine samples were obtained by bladder puncture during necropsy. The animals were fasted for at east 8 hours prior to blood collections for serum chemistry. Serum chemistry parameters included alanine aminotransferase (ALT), total protein, aspartate aminotransferase (AST), alkaline phosphatase (ALP), gamma-glutamyltransferase (GGT), albumin, globulin, albumin/globulin ratio, lactate dehydrogenase (LD), glucose, total bilirubin, cholesterol, urea nitrogen (BUN), creatinine, triglycerides, sodium, calcium, potassium, phosphorus, chloride and carbon dioxide. Hematology parameters included red blood cell count, hemoglobin concentration, hematocrit, mean corpuscular volume (MCV), mean corpuscular hemoglobin concentration (MCHC), mean corpuscular hemoglobin (MCH), red cell distribution width, reticulocyte count, platelet count, mean platelet volume (MPV) and white blood cell count. Coagulation parameters included prothrombin time (PT) and activated partial thromboplastin time. Urinalysis parameters included color/character, specific gravity, pH, protein, glucose, ketones, bilirubin, occult blood and microscopics.

cynomolgus monkeys = assay: 14-day oral toxicity study in cynomolgus monkeys; format: in vivo, cynomolgus monkey
Description: as §1, §2, §3, §4, §5

## N#Cc1ccc(N2CCC[C@@H]2[C@@H](O)C(F)(F)F)cc1C(F)(F)F [Compound 102, R,R-4-(2-(1-Hydroxyl-2,2,2-trifluoroethyl)-pyrrolidinyl)-2-trifluoromethyl-benzonitrile]
[1]; female, females
  NOAEL at 14 days: 150 mg/kg
[1]; male, males
  NOAEL at 14 days: 450 mg/kg
Cynomolgus monkeys; 5, 50 and 150 mg/kg males and females and 450 mg/kg female
  platelet counts lower on Day 14 relative to Day −3: 14% to 38%
Cynomolgus monkeys; Day 14, all dosed animals
  serum cholesterol concentration: decreased
Cynomolgus monkeys; Day 14, all dosed animals except the 5 mg/kg female
  prothrombin time longer than Day −3: 1.8 to 3.5 s
Cynomolgus monkeys; all dose levels
  microscopic findings (histopathology): no direct Compound 102-related microscopic findings
  ophthalmic examinations: no Compound 102-related findings
  urinalysis parameters: no Compound 102-related effects
Cynomolgus monkeys; all dosed animals relative to controls
  body weight: dose-independent increase in body weight
Cynomolgus monkeys; both sexes at 150 and 450 mg/kg
  gross necropsy findings: decreased thymus size and brown discoloration of the adrenals
Cynomolgus monkeys; cynomolgus monkeys, 14 days
  NOEL: not achieved
Cynomolgus monkeys; daily administration for 14 days, all dose levels
  mortality, clinical signs, food consumption, histologic effects: did not result in mortality, adverse clinical signs or changes in food consumption or histologic effects
Cynomolgus monkeys; female animal dosed with 450 mg/kg, after 14 days
  serum ALT and AST activity: elevated
Cynomolgus monkeys; males at 150 mg/kg and above, females at 50 mg/kg and above, considered secondary to stress
  thymus histology: Minimal to mild lymphoid cortical depletion of the thymus
